This is an account of results in paper PMC8197369, “Scale-Up Preparation of Crocins I and II from Gardenia jasminoides by a Two-Step Chromatographic Approach and Their Inhibitory Activity Against ATP Citrate Lyase” (Molecules, 2021).

Usually IC50 stands for the midpoint of a concentration-inhibition curve. Low readings indicate greater potency in that assay, high ones weaker potency in that assay.

This test addresses T1, ATP citrate lyase (ACLY) (Homo sapiens, UniProt P53396).
T1 construct: ACLY (His)
T1 sequence (P53396 1-1101): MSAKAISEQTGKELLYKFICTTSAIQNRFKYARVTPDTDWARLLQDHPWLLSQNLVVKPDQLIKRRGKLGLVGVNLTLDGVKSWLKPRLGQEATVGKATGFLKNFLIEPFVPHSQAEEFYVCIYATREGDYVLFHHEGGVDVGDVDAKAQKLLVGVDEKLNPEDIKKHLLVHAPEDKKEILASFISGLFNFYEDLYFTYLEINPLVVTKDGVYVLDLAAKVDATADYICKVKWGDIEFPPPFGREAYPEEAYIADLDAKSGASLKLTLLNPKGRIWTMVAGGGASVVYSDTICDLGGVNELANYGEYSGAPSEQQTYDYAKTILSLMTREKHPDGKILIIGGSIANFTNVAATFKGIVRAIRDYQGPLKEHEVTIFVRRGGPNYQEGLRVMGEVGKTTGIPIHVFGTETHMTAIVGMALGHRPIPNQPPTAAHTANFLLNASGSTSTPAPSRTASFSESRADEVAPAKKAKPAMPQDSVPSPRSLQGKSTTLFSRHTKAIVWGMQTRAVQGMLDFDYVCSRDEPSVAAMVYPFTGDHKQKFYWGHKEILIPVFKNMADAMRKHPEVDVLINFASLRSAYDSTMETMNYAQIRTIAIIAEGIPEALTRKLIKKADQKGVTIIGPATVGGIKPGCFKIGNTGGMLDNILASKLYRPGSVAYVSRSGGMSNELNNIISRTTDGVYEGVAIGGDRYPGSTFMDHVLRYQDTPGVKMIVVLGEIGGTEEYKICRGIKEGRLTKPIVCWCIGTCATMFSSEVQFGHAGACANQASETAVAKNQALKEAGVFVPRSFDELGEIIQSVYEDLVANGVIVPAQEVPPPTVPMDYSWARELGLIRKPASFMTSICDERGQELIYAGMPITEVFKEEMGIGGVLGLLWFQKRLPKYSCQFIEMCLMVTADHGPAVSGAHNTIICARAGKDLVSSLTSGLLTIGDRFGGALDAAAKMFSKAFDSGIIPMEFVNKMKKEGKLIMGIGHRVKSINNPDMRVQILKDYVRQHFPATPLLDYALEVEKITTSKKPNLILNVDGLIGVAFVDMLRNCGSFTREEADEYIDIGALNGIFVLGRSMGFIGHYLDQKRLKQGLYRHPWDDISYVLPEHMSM
Nature of the test: ADP-Glo ADP-coupled enzymatic assay. It counts as biochemical.

`CC(/C=C/C=C(\C)C(=O)O[C@@H]1O[C@H](CO[C@@H]2O[C@H](CO)[C@@H](O)[C@H](O)[C@H]2O)[C@@H](O)[C@H](O)[C@H]1O)=C\C=C\C=C(C)\C=C\C=C(/C)C(=O)O[C@@H]1O[C@H](CO[C@@H]2O[C@H](CO)[C@@H](O)[C@H](O)[C@H]2O)[C@@H](O)[C@H](O)[C@H]1O` [compound 1, crocin I] returned an IC50 of 36.3 ± 6.24 µM.
The compound `CC(/C=C/C=C(\C)C(=O)O[C@@H]1O[C@H](CO)[C@@H](O)[C@H](O)[C@H]1O)=C\C=C\C=C(C)\C=C\C=C(/C)C(=O)O[C@@H]1O[C@H](CO[C@@H]2O[C@H](CO)[C@@H](O)[C@H](O)[C@H]2O)[C@@H](O)[C@H](O)[C@H]1O` [compound 2, crocin II] displayed an IC50 of 29.7 ± 7.41 µM.
